Results published in patent US20100272797A1, “Pharmaceutical Composition for Treating Hepatitis C Virus Infection Comprising HMG-COA Reductase Inhibitor and Bile Acid” (HANALL PHARMACEUTICAL COMPANY, LTD., priority 2007, published 2010).

What was measured:
[1] = in vivo, absorbed by passive diffusion; cited from earlier work
EMC virus = assay: Test Example 1: inhibitory effects on EMCV in A549 cells, MTT assay; type: cell-based; settings: A549 cells infected with EMC virus, IFN 20 IU/ml, fluvastatin 5 μM, UDCA 61.9 μM as named
[2] = human, in vivo; cited from earlier work

Structure (SMILES) | absorbed drug excreted in the form of bile [1] | Average (MTT absorbance) (EMC virus; absorbance 550-600 nm, N 10) | Survival rate (antivirus activity) (EMC virus; vehicle = 0.0) | hepatitis patients with continuous increase in transaminase levels [2] | share of such patients with increase in blood transaminase levels within 12 weeks after administration [2] | transaminase level elevation relative to upper limit of normal [2]
C[C@H](CCC(=O)O)[C@H]1CC[C@H]2[C@@H]3[C@@H](O)C[C@@H]4C[C@H](O)CC[C@]4(C)[C@H]3CC[C@]12C [ursodeoxycholic acid] | about 50% |  |  |  |  | 
CC(C)n1c(/C=C/C(O)CC(O)CC(=O)O)c(-c2ccc(F)cc2)c2ccccc21 (racemic) [Fluvastatin, [R,S-(E)]-(±)-7-[3-(4-fluorophenyl)-1-(1-methylethyl)-1H-indol-2-yl]-3,5-dihydroxy-6-heptanoate] |  | 0.8638 | 1.7 | about 1.1% | At least 90% | at least 3 times the upper limit of normal
